Reference: ChEMBL document CHEMBL3425446, “Isolation, semi-synthesis and bio-evaluation of spatane derivatives from the brown algae Stoechospermum marginatum” (Bioorg Med Chem Lett, 2015)
Values after ≈ are worked out from the molar mass of the structure shown. Active and inactive are the calls of the source. The rule behind the calls is not given here.

How the values were obtained:
Escherichia coli [1] = test: Antibacterial activity against Escherichia coli assessed as growth inhibition at 0.5 mg/ml after 24 hrs by well diffusion method; assay type: functional; conditions: read-out: DIZ
Bacillus subtilis [2] = test: Antibacterial activity against Bacillus subtilis assessed as growth inhibition at 0.5 mg/ml after 24 hrs by well diffusion method; assay type: functional; conditions: read-out: DIZ
Micrococcus luteus [3] = test: Antibacterial activity against Micrococcus luteus assessed as growth inhibition at 0.5 mg/ml after 24 hrs by well diffusion method; assay type: functional; conditions: read-out: DIZ
Klebsiella pneumoniae [4] = test: Antibacterial activity against Klebsiella pneumoniae assessed as growth inhibition at 0.5 mg/ml after 24 hrs by well diffusion method; assay type: functional; conditions: read-out: DIZ
Escherichia coli [5] = test: Antibacterial activity against Escherichia coli assessed as compound concentration required to complete growth inhibition at 8 hrs by tube dilution method; assay type: functional
Bacillus subtilis [6] = test: Antibacterial activity against Bacillus subtilis assessed as compound concentration required to complete growth inhibition at 8 hrs by tube dilution method; assay type: functional
Micrococcus luteus [7] = test: Antibacterial activity against Micrococcus luteus assessed as compound concentration required to complete growth inhibition at 8 hrs by tube dilution method; assay type: functional
Klebsiella pneumoniae [8] = test: Antibacterial activity against Klebsiella pneumoniae assessed as compound concentration required to complete growth inhibition at 8 hrs by tube dilution method; assay type: functional
THP-1 [9] = test: Cytotoxicity against human THP1 cells assessed as decrease in cell number after 24 hrs by MTT assay; assay type: functional, cell-based; conditions: THP-1, 24 h
[10] = Cytotoxicity against human U937 cells assessed as decrease in cell number after 24 hrs by MTT assay; assay type: functional, cell-based; conditions: U-937, 24 h
COLO 205 [11] = test: Cytotoxicity against human COLO205 cells assessed as decrease in cell number after 24 hrs by MTT assay; assay type: functional, cell-based; conditions: COLO 205, 24 h
B16-F10 = test: Cytotoxicity against mouse B16F10 cells assessed as growth inhibition at 200 ug/ml after 24 hrs by MTT assay; assay type: functional, cell-based
HL-60 = test: Cytotoxicity against human HL60 cells assessed as growth inhibition at 200 ug/ml after 24 hrs by MTT assay; assay type: functional, cell-based
[12] = Cytotoxicity against mouse B16F10 cells assessed as decrease in cell number after 24 hrs by MTT assay; assay type: functional, cell-based; conditions: B16-F10, 24 h
U-937 = test: Cytotoxicity against human U937 cells assessed as growth inhibition at 200 ug/ml after 24 hrs by MTT assay; assay type: functional, cell-based
THP-1 [13] = test: Cytotoxicity against human THP1 cells assessed as growth inhibition at 200 ug/ml after 24 hrs by MTT assay; assay type: functional, cell-based
COLO 205 [14] = test: Cytotoxicity against human COLO205 cells assessed as growth inhibition at 200 ug/ml after 24 hrs by MTT assay; assay type: functional, cell-based

Row | Structure (SMILES) | zone of inhibition at 500 µg/mL (Escherichia coli [1]) [mm] | zone of inhibition at 500 µg/mL (Bacillus subtilis [2]) [mm] | zone of inhibition at 500 µg/mL (Micrococcus luteus [3]) [mm] | zone of inhibition at 500 µg/mL (Klebsiella pneumoniae [4]) [mm] | MIC (Escherichia coli [5]) [µg/mL] | MIC (Bacillus subtilis [6]) [µg/mL] | MIC (Micrococcus luteus [7]) [µg/mL] | MIC (Klebsiella pneumoniae [8]) [µg/mL] | IC50 (THP-1 [9]) [µg/mL] | IC50 [10] [µg/mL] | IC50 (COLO 205 [11]) [µg/mL] | growth inhibition (GI) (B16-F10) | growth inhibition (GI) (HL-60) | IC50 [12] [µg/mL] | growth inhibition (GI) (U-937) | growth inhibition (GI) (THP-1 [13]) | growth inhibition (GI) (COLO 205 [14])
1 | C=C(CC(=O)C=C(C)C)[C@@H]1CC(=O)[C@@]2(C)[C@@H]1[C@@H]1[C@H](C)CC[C@@H]12 | 10 | 0 | 11.3 | 12.7 | 200 (≈ 666 µM) | 400 (≈ 1330 µM) | 200 (≈ 666 µM) | 200 (≈ 666 µM) | 113 (≈ 377 µM) | 47.5 (≈ 158 µM) | 167 (≈ 557 µM) | inactive | inactive | – | – | – | –
2 | C=C(C(O)/C=C/C(C)(O)CO)[C@@H]1C[C@@H](O)[C@@]2(C)[C@@H]1[C@@H]1[C@H](C)CC[C@@H]12 (mixture of isomers) | 11.7 | 12.7 | 12.3 | 12.3 | 200 | 200 | 200 | 200 | 55.6 | – | 17.4 | – | inactive | 196 | inactive | – | –
3 | C=C(C(/C=C/C(C)(O)COC(C)=O)OC(C)=O)[C@@H]1C[C@@H](O)[C@@]2(C)[C@@H]1[C@@H]1[C@H](C)CC[C@@H]12 (mixture of isomers) | 14.3 | 11.7 | 12.3 | 12.7 | 100 | 100 | 100 | 200 | – | – | – | – | inactive | 82 | inactive | inactive | inactive
